Experimental findings from publication PMC3639963, “A New Class of Small Molecule Inhibitor of BMP Signaling” (PLoS ONE, 2013) are described below.

Common to all, as to assay: DSF thermal shift
Type in all cases: binding
Common to all, as to conditions: 10 µM inhibitor; read-out: Tm shift

In one assay the target is T1, PIM1 (Homo sapiens, UniProt P11309).
T1 construct: purchased Nanosyn (enzymatic panel); SGC in-house recombinant human kinases (DSF panel); Invitrogen (ALK1-6)
How it is done: (§1) Thermal melting experiments were performed using a Real Time PCR machine Mx3005p (Stratagene) with a protein concentration of 1–2 µM and 10 µM inhibitor as described previously, [25]. […] Recombinant human kinases for DSF screening were prepared by SGC using published methods, [36].

The target of the next assay is T2, YANK1 (Homo sapiens, UniProt Q8WU08).
T2 construct: purchased Nanosyn (enzymatic panel); SGC in-house recombinant human kinases (DSF panel); Invitrogen (ALK1-6)
How it is done:
as §1

The target in the next assay is T3, MPSK1 (Homo sapiens, UniProt O75716).
T3 construct: purchased Nanosyn (enzymatic panel); SGC in-house recombinant human kinases (DSF panel); Invitrogen (ALK1-6)
How it is done: as §1

The target of another assay is T4, DRAK2 (Homo sapiens, UniProt O94768).
T4 construct: purchased Nanosyn (enzymatic panel); SGC in-house recombinant human kinases (DSF panel); Invitrogen (ALK1-6)
T4 sequence (O94768 1-372): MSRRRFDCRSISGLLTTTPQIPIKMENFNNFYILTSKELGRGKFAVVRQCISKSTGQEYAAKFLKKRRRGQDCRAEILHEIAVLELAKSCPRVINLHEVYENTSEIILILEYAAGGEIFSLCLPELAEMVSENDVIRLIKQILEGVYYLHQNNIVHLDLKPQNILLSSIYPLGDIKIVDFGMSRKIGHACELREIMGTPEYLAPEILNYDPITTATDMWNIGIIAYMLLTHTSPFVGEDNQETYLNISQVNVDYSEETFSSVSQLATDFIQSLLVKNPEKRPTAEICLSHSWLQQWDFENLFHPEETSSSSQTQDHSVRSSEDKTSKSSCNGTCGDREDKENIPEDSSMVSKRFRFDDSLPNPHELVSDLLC
How it is done:
as §1

The target of the next assay is T5, AMPKα1 (Homo sapiens, UniProt Q13131).
T5 construct: purchased Nanosyn (enzymatic panel); SGC in-house recombinant human kinases (DSF panel); Invitrogen (ALK1-6)
How it is done: as §1

The target of a further assay is T6, NEK11 (Homo sapiens, UniProt Q8NG66).
T6 construct: purchased Nanosyn (enzymatic panel); SGC in-house recombinant human kinases (DSF panel); Invitrogen (ALK1-6)
T6 sequence (Q8NG66 1-645): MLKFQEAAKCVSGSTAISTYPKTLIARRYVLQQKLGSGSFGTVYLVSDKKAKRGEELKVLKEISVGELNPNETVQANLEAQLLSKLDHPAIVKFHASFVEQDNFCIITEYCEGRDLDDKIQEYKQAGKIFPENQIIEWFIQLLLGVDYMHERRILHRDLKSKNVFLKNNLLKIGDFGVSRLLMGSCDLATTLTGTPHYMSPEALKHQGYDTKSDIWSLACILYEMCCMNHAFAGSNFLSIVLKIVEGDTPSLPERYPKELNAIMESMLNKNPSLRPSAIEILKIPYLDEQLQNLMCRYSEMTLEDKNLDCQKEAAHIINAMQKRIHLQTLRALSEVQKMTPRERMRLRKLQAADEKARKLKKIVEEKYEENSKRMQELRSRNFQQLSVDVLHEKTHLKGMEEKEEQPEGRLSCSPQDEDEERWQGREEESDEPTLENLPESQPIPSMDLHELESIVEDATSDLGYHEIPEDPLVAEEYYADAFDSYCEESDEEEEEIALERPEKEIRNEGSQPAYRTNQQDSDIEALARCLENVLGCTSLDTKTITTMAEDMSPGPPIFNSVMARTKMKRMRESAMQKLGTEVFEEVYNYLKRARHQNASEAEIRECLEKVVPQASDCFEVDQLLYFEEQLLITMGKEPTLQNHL
How it is done:
as §1

Another assay deals with T7, JNK1 (Homo sapiens, UniProt P45983).
T7 construct: purchased Nanosyn (enzymatic panel); SGC in-house recombinant human kinases (DSF panel); Invitrogen (ALK1-6)
How it is done:
as §1

A further assay addresses T8, MST3 (Homo sapiens, UniProt Q9Y6E0).
T8 construct: purchased Nanosyn (enzymatic panel); SGC in-house recombinant human kinases (DSF panel); Invitrogen (ALK1-6)
How it is done: as §1

Another assay addresses T9, MEK2 (Homo sapiens, UniProt P36507).
T9 construct: purchased Nanosyn (enzymatic panel); SGC in-house recombinant human kinases (DSF panel); Invitrogen (ALK1-6)
How it is done: as §1

Another assay deals with T10, p38δ (Homo sapiens, UniProt O15264).
T10 construct: purchased Nanosyn (enzymatic panel); SGC in-house recombinant human kinases (DSF panel); Invitrogen (ALK1-6)
T10 sequence (O15264 1-365): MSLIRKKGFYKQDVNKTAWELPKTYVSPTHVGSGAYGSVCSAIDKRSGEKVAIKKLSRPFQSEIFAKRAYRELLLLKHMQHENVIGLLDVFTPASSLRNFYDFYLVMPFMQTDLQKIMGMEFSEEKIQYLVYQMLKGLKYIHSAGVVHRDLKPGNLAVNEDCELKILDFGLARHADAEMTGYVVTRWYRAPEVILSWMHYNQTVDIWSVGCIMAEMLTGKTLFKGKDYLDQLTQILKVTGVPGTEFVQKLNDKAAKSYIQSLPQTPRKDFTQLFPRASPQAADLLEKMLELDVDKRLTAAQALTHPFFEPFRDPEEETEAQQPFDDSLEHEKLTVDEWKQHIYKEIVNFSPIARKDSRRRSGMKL
How it is done:
as §1

Another assay has as its target T11, Haspin (Homo sapiens, UniProt Q8TF76).
T11 construct: purchased Nanosyn (enzymatic panel); SGC in-house recombinant human kinases (DSF panel); Invitrogen (ALK1-6)
T11 sequence (Q8TF76 1-798): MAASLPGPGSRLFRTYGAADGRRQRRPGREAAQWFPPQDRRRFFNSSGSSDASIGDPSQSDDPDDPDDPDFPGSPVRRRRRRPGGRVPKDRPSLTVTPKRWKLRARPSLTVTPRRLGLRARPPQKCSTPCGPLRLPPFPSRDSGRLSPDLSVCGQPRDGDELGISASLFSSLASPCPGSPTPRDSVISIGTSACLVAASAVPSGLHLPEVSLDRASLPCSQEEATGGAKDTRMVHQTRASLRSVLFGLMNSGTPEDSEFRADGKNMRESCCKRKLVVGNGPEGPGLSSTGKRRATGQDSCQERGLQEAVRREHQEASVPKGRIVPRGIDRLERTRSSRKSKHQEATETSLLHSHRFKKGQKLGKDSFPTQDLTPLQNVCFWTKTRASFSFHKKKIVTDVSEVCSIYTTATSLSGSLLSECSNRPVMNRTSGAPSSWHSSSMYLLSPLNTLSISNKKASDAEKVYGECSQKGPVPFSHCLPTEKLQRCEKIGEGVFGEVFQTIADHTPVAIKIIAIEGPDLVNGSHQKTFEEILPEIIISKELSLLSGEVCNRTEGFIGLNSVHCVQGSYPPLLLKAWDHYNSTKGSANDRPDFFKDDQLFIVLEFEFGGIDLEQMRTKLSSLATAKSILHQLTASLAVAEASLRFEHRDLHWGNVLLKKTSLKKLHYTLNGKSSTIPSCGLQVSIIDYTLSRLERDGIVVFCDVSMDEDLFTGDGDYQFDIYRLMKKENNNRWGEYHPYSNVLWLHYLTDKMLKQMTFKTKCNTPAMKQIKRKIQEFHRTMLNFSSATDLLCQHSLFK
How it is done:
as §1

Molecules are shown by their SMILES.

T3 sequence (O75716 whole entry): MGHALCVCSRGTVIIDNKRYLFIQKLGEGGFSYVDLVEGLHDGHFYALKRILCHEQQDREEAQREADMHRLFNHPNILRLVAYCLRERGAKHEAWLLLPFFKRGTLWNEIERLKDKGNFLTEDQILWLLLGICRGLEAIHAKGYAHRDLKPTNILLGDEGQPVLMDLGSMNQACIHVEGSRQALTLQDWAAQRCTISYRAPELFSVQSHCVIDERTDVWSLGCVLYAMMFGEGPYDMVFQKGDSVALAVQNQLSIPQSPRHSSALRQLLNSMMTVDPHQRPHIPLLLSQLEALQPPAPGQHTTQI
T1 sequence (P11309 whole entry): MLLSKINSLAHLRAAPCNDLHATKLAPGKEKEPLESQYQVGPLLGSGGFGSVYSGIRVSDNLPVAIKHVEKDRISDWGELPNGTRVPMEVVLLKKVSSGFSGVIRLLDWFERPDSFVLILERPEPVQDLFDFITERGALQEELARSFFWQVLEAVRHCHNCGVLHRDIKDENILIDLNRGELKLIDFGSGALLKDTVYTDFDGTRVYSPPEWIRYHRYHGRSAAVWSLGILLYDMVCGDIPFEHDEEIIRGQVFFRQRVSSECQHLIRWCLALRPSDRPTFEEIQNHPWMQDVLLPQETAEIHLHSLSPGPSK
T8 sequence (Q9Y6E0 whole entry): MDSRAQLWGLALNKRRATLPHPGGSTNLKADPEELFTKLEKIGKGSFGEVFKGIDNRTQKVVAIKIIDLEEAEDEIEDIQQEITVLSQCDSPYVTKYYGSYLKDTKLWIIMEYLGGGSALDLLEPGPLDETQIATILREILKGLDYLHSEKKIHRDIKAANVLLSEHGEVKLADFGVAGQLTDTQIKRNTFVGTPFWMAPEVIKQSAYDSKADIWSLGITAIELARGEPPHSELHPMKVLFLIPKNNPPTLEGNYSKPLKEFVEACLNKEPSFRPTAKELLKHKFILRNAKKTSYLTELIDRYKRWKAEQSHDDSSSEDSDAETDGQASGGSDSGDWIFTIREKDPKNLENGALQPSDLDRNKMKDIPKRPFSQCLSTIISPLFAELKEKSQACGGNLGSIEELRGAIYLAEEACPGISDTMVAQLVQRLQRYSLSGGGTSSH
T9 sequence (P36507 whole entry): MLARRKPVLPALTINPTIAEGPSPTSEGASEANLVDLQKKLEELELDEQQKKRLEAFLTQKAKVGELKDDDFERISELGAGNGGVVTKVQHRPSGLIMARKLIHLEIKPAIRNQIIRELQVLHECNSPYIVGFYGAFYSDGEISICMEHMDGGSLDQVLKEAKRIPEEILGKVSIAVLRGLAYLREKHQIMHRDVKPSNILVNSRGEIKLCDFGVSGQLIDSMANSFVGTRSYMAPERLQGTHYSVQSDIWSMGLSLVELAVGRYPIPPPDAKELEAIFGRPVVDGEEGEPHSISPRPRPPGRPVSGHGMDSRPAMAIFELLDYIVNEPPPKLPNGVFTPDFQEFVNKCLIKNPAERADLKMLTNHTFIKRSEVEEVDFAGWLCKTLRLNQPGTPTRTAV
T2 sequence (Q8WU08 whole entry): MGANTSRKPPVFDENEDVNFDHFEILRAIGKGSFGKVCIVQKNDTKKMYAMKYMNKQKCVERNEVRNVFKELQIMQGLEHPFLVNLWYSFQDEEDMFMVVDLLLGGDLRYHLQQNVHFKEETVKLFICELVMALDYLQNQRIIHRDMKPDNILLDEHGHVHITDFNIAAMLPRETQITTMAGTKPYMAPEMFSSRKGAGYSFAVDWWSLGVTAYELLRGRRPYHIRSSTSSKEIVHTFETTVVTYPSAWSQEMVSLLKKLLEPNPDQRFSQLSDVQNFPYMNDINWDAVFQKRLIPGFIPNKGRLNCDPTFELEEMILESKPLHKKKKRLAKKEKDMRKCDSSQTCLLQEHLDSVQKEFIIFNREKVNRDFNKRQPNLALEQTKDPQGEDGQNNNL
T7 sequence (P45983 whole entry): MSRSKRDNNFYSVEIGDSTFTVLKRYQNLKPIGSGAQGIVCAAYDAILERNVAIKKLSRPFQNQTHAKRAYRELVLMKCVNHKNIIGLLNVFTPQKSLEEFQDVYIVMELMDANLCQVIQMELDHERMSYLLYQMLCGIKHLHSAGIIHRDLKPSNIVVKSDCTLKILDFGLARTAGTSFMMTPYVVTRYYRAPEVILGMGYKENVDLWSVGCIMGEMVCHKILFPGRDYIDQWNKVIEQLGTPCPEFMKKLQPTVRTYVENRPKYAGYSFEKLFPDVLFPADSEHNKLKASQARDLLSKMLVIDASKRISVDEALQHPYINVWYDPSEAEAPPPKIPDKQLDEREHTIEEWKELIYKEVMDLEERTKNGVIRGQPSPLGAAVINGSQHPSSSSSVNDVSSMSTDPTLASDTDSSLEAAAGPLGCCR
T5 sequence (Q13131 whole entry): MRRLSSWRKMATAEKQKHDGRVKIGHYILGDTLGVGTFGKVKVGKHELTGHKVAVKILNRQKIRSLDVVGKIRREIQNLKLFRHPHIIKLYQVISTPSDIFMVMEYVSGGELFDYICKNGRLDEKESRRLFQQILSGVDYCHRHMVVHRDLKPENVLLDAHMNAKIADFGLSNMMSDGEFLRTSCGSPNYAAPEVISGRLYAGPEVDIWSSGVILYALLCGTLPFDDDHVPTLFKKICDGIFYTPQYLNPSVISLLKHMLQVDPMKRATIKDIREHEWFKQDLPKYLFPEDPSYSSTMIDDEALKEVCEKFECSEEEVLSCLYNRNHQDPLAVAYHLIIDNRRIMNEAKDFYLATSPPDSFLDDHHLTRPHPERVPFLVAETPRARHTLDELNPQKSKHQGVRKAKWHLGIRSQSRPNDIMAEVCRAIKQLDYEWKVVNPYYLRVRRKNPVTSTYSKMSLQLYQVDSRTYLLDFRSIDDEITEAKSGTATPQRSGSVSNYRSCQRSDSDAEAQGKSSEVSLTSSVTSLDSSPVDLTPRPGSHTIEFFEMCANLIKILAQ
T5 sequence (Q9Y478 whole entry partner): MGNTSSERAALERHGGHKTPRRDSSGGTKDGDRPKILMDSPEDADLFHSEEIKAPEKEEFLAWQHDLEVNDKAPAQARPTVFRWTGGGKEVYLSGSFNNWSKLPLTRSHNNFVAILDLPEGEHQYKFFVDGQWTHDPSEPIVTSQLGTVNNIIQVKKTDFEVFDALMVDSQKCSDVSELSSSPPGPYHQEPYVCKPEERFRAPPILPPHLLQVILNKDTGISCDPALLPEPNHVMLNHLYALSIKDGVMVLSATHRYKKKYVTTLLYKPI
T5 sequence (P54619 whole entry partner): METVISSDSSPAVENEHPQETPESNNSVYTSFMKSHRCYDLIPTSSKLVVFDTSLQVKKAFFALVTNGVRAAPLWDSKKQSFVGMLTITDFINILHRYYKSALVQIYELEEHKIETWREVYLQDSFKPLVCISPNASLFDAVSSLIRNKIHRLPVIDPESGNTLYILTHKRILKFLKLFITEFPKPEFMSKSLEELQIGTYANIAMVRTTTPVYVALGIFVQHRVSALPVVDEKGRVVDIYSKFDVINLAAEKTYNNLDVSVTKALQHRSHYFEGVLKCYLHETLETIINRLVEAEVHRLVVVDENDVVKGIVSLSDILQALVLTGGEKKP

In the case of `COc1cc(-c2cc(-c3cccc(O)c3)cnc2N)cc(OC)c1OC` [K02288, 3-[6-amino-5-(3,4,5-trimethoxy-phenyl)-pyridin-3-yl]-phenol], the ΔTm at 10 µM at PIM1 turned out to be 0.1 °C; on YANK1, 0.2 °C; at MPSK1 it was 0.3 °C; on DRAK2, 0.6 °C; on AMPKα1, 0.2 °C; at NEK11, 0.3 °C. The ΔTm at 10 µM at JNK1 is 0.2 °C; at MST3, 0.3 °C; on MEK2 it was 2.4 °C; at p38δ, -0.2 °C; at Haspin, 0.3 °C.

Regarding `c1cc(-c2cnn3cc(-c4ccc(OCCN5CCCCC5)cc4)cnc23)ccn1` [Dorsomorphin], the ΔTm at 10 µM was determined as 0.6 °C at PIM1; 0.5 °C at YANK1; 5.3 °C at MPSK1; 10 °C on DRAK2; 3.9 °C on AMPKα1; 2 °C at NEK11. Also, the ΔTm at 10 µM at JNK1 is 0 °C; on MST3, 4.6 °C; on MEK2, -0.1 °C; on p38δ, 0 °C; on Haspin it was 2.3 °C.

As for `c1ccc2c(-c3cnn4cc(-c5ccc(N6CCNCC6)cc5)cnc34)ccnc2c1` [LDN-193189], the ΔTm at 10 µM was 0.5 °C at PIM1; 1.2 °C at YANK1; 5.3 °C on MPSK1; 2.1 °C on DRAK2; 4.3 °C at AMPKα1; -0.3 °C at NEK11. Moreover, the ΔTm at 10 µM at JNK1 is 0.5 °C; on MST3 it was 7.9 °C; on MEK2, 2.1 °C; on p38δ, -0.4 °C; on Haspin, 0.4 °C.
